Patent publication US6930127B2, “Veterinary treatment of ophthalmic disease in animals using topical tacrolimus” (Eaton Veterinary Laboratories, Inc., priority 2002, dated 2005)

Columns and labels:
[1] = system: canines with keratoconjunctivitis sicca; test: Clinical trial of topical tacrolimus in treatment of canine keratoconjunctivitis sicca; assay type: in vivo, dogs; conditions: twice daily, 30 days
Method: A population of canines with keratoconjunctivitis sicca was subject to a method of treatment with a topical tacrolimus solution in order to evaluate the therapeutic effectiveness of the drug. Materials • 0.02% tacrolimus was prepared in a physiologically acceptable ointment base. • 0.02% tacrolimus was prepared in a physiologically acceptable oil base. • Schirmer Tear Test strips were employed to measure tearing. • Petrolatum eye ointment was used for patient comfort. • Commercial eyewash was used as a cleaning solution. The test group consisted of 26 dogs of various breeds from different geographic areas. […] 24 dogs were administered a dose of tacrolimus in either ointment or oil base twice daily in both eyes for 30 days. 2 dogs received the same treatment in only one eye. Petrolatum ointment was administered to some dogs as necessary for comfort. Debris was flushed from the eyes as necessary using a commercial eyewash preparation. The eyes were examined and observations recorded at days 7-14 and again at 21-30 days during treatment.

immune response = conditions: 'thought to be'; cited from earlier work
[2] = cited from earlier work

Structure (SMILES): C=CC[C@@H]1/C=C(\C)C[C@H](C)C[C@H](OC)[C@H]2O[C@@](O)(C(=O)C(=O)N3CCCC[C@H]3C(=O)O[C@H](/C(C)=C/[C@@H]3CC[C@@H](O)[C@H](OC)C3)[C@H](C)[C@@H](O)CC1=O)[C@H](C)C[C@@H]2OC [Tacrolimus]
- signs of ocular irritation ([1]; 0.02% tacrolimus in ointment or oil base, topical): None of the subjects exhibited signs of ocular irritation
- treated eyes exhibiting improvement ([1]; 0.02% tacrolimus in ointment or oil base, topical, 26 dogs with KCS): 96%
- treated eyes exhibiting improved Schirmer Tear Test (STT) values ([1]; 0.02% tacrolimus in ointment or oil base, topical, 60 second STT): 92%
- additional effect: corneal scarring and pigmentation ([1]; 0.02% tacrolimus topical): reduction in corneal scarring and pigmentation
- additional effect: inflammation of the conjunctiva ([1]; 0.02% tacrolimus topical): reduction in inflammation of the conjunctiva
- effectiveness in dogs, including those where cyclosporine had previously failed ([1]; 0.02% tacrolimus topical): effective in some dogs for whom cyclosporine treatment had previously failed
- potency relative to cyclosporine on a per gram basis (immune response): up to 100 times
- solubility in alcohols and some oils ([2]; alcohols and some oils): soluble
- solubility in water ([2]; water): practically insoluble
